# Assay results published in patent US4617314A, “Benzofuran- and benzopyran-carboxamide derivatives” (priority 1983, dated 1986).
# Tests used:
# [1] = system: hypermotility of mice induced by apomorphine; experiment: Anti-apomorphine Action (mice): suppression of spontaneous motility; format: in vivo, mice (male dd-strain); conditions: 60 min before 0.5 mg/kg apomorphine hydrochloride, 50% suppression of spontaneous motility; for Anti-apomorphine Action ED50, Mice, Motility: p.o.; for ED50: Mus musculus, po
# From the text: (§1) Dopamine antagonism was observed by the antagonism to
# (1) hypermotility of mice, and
# (§2) induced by the administration of apomorphine to the animals which drug acts on dopamine. The response of (1) is considered to be due to the action of dopamine on the mesolimbic system whereas the response of (2) is regarded mainly as the action of dopamine on the extrapyramidal system. As a consequence, a drug having high selectivity to the antagonism to the response of (1) is deemed to be more useful with less extrapyramidal side effects.
# Groups of 5 male dd-strain mice were used. Test compounds were orally administered and 60 minutes thereafter, 0.5 mg/kg of apomorphine hydrochloride was intracutaneously administered. Immediately thereafter, spontaneous motility of the mice was measured with the aid of Animex (manufactured by Columbus Company, U.S.A.) for 20 minutes. The procedure was repeated three times with respective groups. The dose of test compounds required for 50% suppression of spontaneous motility of control group was graphically intraporated and determined as ED50 value.
# [2] = system: stereotyped behavior of rats induced by apomorphine; experiment: Anti-apomorphine Action (rats): suppression of gnawing (stereotyped) behavior; format: in vivo, rats (female Wistar); conditions: Rattus norvegicus, po, 60 min before 1.25 mg/kg i.v. apomorphine hydrochloride; 50% suppression of gnawing behavior; probit
# From the text: as §1
# (2) stereotyped behavior of rats
# as §2
# Groups of 7 female Wistar rats were used. Test compounds were orally administered, 60 minutes thereafter, apomorphine hydrochloride was intravenously administered at a dosage of 1.25 mg/kg. After 5 minutes and 20 minutes, respectively, whether gnawing behavior (stereotyped behavior) appears or not during the period of 5 minutes was observed. The dose of test compounds required for 50% suppression of the appearance was evaluated as ED50 value by probit method.
# [3] = system: rats administered with methamphetamine; experiment: Methamphetamine Potentiation Action (lethality increasing effect); format: in vivo, rats (male Wistar); conditions: 8 rats/group, methamphetamine hydrochloride 5 mg/kg i.p.
# Procedure: Activation effect was construed as lethality increasing effect of a test drug on rats which were administered with methamphetamine at a non-lethal dose every week. Accordingly, it is considered that the greater is the number of rats which died at a lower dose in an earlier week, the activation activity is the higher.
# Groups of 8 male Wistar rats weighing above […] were used. Test compounds are intraperitoneally administered and 15 minutes thereafter, 5 mg/kg of methamphetamine hydrochloride was intraperitoneally administered. Number of dead rats within one week was counted. In the 2nd to 4th week, experiment was likewise repeated at one week intervals by the administration of test compounds and methamphetamine hydrochloride.
# [4] = in vivo; cited from earlier work
# extrapyramidal system = conditions: cited from earlier work
# [5] = in vivo, po; cited from earlier work
smiles,measurement,setting,value
"CCN1CCCC1CNC(=O)c1cc(S(N)(=O)=O)cc2c1OC(C)C2 (single isomer, unassigned) [C, N-(1-ethyl-2-pyrrolidinylmethyl)-2-methyl-5-sulfamoyl-2,3-dihydrobenzofuran-7-carboxamide]","Anti-apomorphine Action ED50, Mice, Motility",[1],85 mg/kg
"CC1Cc2cc(S(N)(=O)=O)cc(C(=O)NC3CCN(Cc4ccccc4)C3)c2O1 (centres unmarked) [Compound E, N-(1-benzyl-3-pyrrolidinyl)-2-methyl-5-sulfamoyl-2,3-dihydrobenzofuran-7-carboxamide]",ED50,[2],> 100 mg/kg
same,ED50,[1],100 mg/kg
"CCN1CCCC1CNC(=O)c1cc(S(N)(=O)=O)cc2c1OCC2.O (centres unmarked) [L, N-(1-ethyl-2-pyrrolidinylmethyl)-5-sulfamoyl-2,3-dihydrobenzofuran-7-carboxamide monohydrate]","Methamphetamine Potentiation Action, Number of Dead Animal, Total Number","[3]; 1st Week, 25 mg/kg",3
same,"Methamphetamine Potentiation Action, Number of Dead Animal, Total Number","[3]; 2nd Week, 25 mg/kg",3
same,"Methamphetamine Potentiation Action, Number of Dead Animal, Total Number","[3]; 3rd Week, 25 mg/kg",7
same,"Methamphetamine Potentiation Action, Number of Dead Animal, Total Number","[3]; 4th Week, 25 mg/kg",8
"CCN1CCCC1CNC(=O)c1cc(S(=O)(=O)NC)cc2c1OC(C)C2.Cl (centres unmarked) [J, N-(1-ethyl-2-pyrrolidinylmethyl)-2-methyl-5-methylsulfamoyl-2,3-dihydrobenzofuran-7-carboxamide hydrochloride]",ED50,[2],> 100 mg/kg
same,ED50,[1],10 mg/kg
"CC(C)CN1CCCC1CNC(=O)c1cc(S(N)(=O)=O)cc2c1OCC2 (centres unmarked) [G, N-(1-isobutyl-2-pyrrolidinylmethyl)-5-sulfamoyl-2,3-dihydrobenzofuran-7-carboxamide]",ED50,[2],> 100 mg/kg
same,ED50,[1],35 mg/kg
"CCCCN1CCCC1CNC(=O)c1cc(S(N)(=O)=O)cc2c1OC(C)C2 (centres unmarked) [Compound I, N-(1-butyl-2-pyrrolidinylmethyl)-2-methyl-5-sulfamoyl-2,3-dihydrobenzofuran-7-carboxamide]",ED50,[2],> 100 mg/kg
same,ED50,[1],30 mg/kg
"CCN1CCCC1CNC(=O)c1cc(SC)cc2c1OC(C)C2.Cl (centres unmarked) [K, N-(1-ethyl-2-pyrrolidinylmethyl)-2-methyl-5-methylthio-2,3-dihydrobenzofuran-7-carboxamide hydrochloride]",ED50,[2],0.2 mg/kg
same,ED50,[1],0.65 mg/kg
"CC1Cc2cc(S(N)(=O)=O)cc(C(=O)NCC3CCCN3Cc3ccccc3)c2O1 (centres unmarked) [D, N-(1-benzyl-2-pyrrolidinylmethyl)-2-methyl-5-sulfamoyl-2,3-dihydrobenzofuran-7-carboxamide]",ED50,[2],21 mg/kg
same,ED50,[1],6 mg/kg
"CCN1CCCC1CNC(=O)c1cc(S(N)(=O)=O)cc2c1OC(C)C2 (centres unmarked) [A, N-(1-ethyl-2-pyrrolidinylmethyl)-2-methyl-5-sulfamoyl-2,3-dihydrobenzofuran-7-carboxamide]",ED50,[2],> 100 mg/kg
same,"Methamphetamine Potentiation Action, Number of Dead Animal, Total Number","[3]; 1st Week, 5 mg/kg",1
same,"Methamphetamine Potentiation Action, Number of Dead Animal, Total Number","[3]; 1st Week, 10 mg/kg",0
same,"Methamphetamine Potentiation Action, Number of Dead Animal, Total Number","[3]; 1st Week, 20 mg/kg",2
same,"Methamphetamine Potentiation Action, Number of Dead Animal, Total Number","[3]; 2nd Week, 5 mg/kg",1
same,"Methamphetamine Potentiation Action, Number of Dead Animal, Total Number","[3]; 2nd Week, 10 mg/kg",3
same,"Methamphetamine Potentiation Action, Number of Dead Animal, Total Number","[3]; 2nd Week, 20 mg/kg",5
same,"Methamphetamine Potentiation Action, Number of Dead Animal, Total Number","[3]; 3rd Week, 5 mg/kg",1
same,"Methamphetamine Potentiation Action, Number of Dead Animal, Total Number","[3]; 3rd Week, 10 mg/kg",4
same,"Methamphetamine Potentiation Action, Number of Dead Animal, Total Number","[3]; 3rd Week, 20 mg/kg",5
same,"Methamphetamine Potentiation Action, Number of Dead Animal, Total Number","[3]; 4th Week, 5 mg/kg",1
same,"Methamphetamine Potentiation Action, Number of Dead Animal, Total Number","[3]; 4th Week, 10 mg/kg",4
same,"Methamphetamine Potentiation Action, Number of Dead Animal, Total Number","[3]; 4th Week, 20 mg/kg",7
same,ED50,[1],80 mg/kg
"NS(=O)(=O)c1cc2c(c(C(=O)NCC3CCCN3Cc3ccccc3)c1)OCC2 (centres unmarked) [F, N-(1-benzyl-2-pyrrolidinylmethyl)-5-sulfamoyl-2,3-dihydrobenzofuran-7-carboxamide]",ED50,[2],> 100 mg/kg
same,"Methamphetamine Potentiation Action, Number of Dead Animal, Total Number","[3]; 1st Week, 10 mg/kg",0
same,"Methamphetamine Potentiation Action, Number of Dead Animal, Total Number","[3]; 1st Week, 25 mg/kg",0
same,"Methamphetamine Potentiation Action, Number of Dead Animal, Total Number","[3]; 1st Week, 50 mg/kg",0
same,"Methamphetamine Potentiation Action, Number of Dead Animal, Total Number","[3]; 2nd Week, 10 mg/kg",0
same,"Methamphetamine Potentiation Action, Number of Dead Animal, Total Number","[3]; 2nd Week, 25 mg/kg",0
same,"Methamphetamine Potentiation Action, Number of Dead Animal, Total Number","[3]; 2nd Week, 50 mg/kg",2
same,"Methamphetamine Potentiation Action, Number of Dead Animal, Total Number","[3]; 3rd Week, 10 mg/kg",0
same,"Methamphetamine Potentiation Action, Number of Dead Animal, Total Number","[3]; 3rd Week, 25 mg/kg",1
same,"Methamphetamine Potentiation Action, Number of Dead Animal, Total Number","[3]; 3rd Week, 50 mg/kg",3
same,"Methamphetamine Potentiation Action, Number of Dead Animal, Total Number","[3]; 4th Week, 10 mg/kg",1
same,"Methamphetamine Potentiation Action, Number of Dead Animal, Total Number","[3]; 4th Week, 25 mg/kg",2
same,"Methamphetamine Potentiation Action, Number of Dead Animal, Total Number","[3]; 4th Week, 50 mg/kg",6
same,ED50,[1],17 mg/kg
"CCN1CCCC1CNC(=O)c1cc(S(N)(=O)=O)cc2c1OC(C)C2 (single isomer, unassigned) [B, N-(1-ethyl-2-pyrrolidinylmethyl)-2-methyl-5-sulfamoyl-2,3-dihydrobenzofuran-7-carboxamide]","Anti-apomorphine Action ED50, Mice, Motility",[1],23 mg/kg
"CCN1CCCC1CNC(=O)c1cc(S(N)(=O)=O)ccc1OC (centres unmarked) [Sulpyride, reference compound]",ED50,[2],> 500 mg/kg
same,"Methamphetamine Potentiation Action, Number of Dead Animal, Total Number","[3]; 1st Week, 20 mg/kg",0
same,"Methamphetamine Potentiation Action, Number of Dead Animal, Total Number","[3]; 1st Week, 40 mg/kg",0
same,"Methamphetamine Potentiation Action, Number of Dead Animal, Total Number","[3]; 1st Week, 80 mg/kg",2
same,"Methamphetamine Potentiation Action, Number of Dead Animal, Total Number","[3]; 2nd Week, 20 mg/kg",0
same,"Methamphetamine Potentiation Action, Number of Dead Animal, Total Number","[3]; 2nd Week, 40 mg/kg",0
same,"Methamphetamine Potentiation Action, Number of Dead Animal, Total Number","[3]; 2nd Week, 80 mg/kg",3
same,"Methamphetamine Potentiation Action, Number of Dead Animal, Total Number","[3]; 3rd Week, 20 mg/kg",0
same,"Methamphetamine Potentiation Action, Number of Dead Animal, Total Number","[3]; 3rd Week, 40 mg/kg",1
same,"Methamphetamine Potentiation Action, Number of Dead Animal, Total Number","[3]; 3rd Week, 80 mg/kg",3
same,"Methamphetamine Potentiation Action, Number of Dead Animal, Total Number","[3]; 4th Week, 20 mg/kg",0
same,"Methamphetamine Potentiation Action, Number of Dead Animal, Total Number","[3]; 4th Week, 40 mg/kg",1
same,"Methamphetamine Potentiation Action, Number of Dead Animal, Total Number","[3]; 4th Week, 80 mg/kg",3
same,crossing of blood-brain barrier,[4],difficult to cross blood-brain barrier
same,cataleptogenic activity,extrapyramidal system; as opposed to butyrophenone-series (haloperidol) or phenothiazine-series (chlorpromazine) compounds,weak
same,side effects on the extrapyramidal system,extrapyramidal system; in vivo,less side effects
same,ED50,[1],330 mg/kg
same,uptake rate in living organisms,[5],low uptake rate
"CC(C)CN1CCCC1CNC(=O)c1cc(S(N)(=O)=O)cc2c1OC(C)C2 (centres unmarked) [H, N-(1-isobutyl-2-pyrrolidinylmethyl)-2-methyl-5-sulfamoyl-2,3-dihydrobenzofuran-7-carboxamide]",ED50,[2],60 mg/kg
same,"Methamphetamine Potentiation Action, Number of Dead Animal, Total Number","[3]; 1st Week, 20 mg/kg",0
same,"Methamphetamine Potentiation Action, Number of Dead Animal, Total Number","[3]; 1st Week, 40 mg/kg",2
same,"Methamphetamine Potentiation Action, Number of Dead Animal, Total Number","[3]; 2nd Week, 20 mg/kg",6
same,"Methamphetamine Potentiation Action, Number of Dead Animal, Total Number","[3]; 2nd Week, 40 mg/kg",4
same,"Methamphetamine Potentiation Action, Number of Dead Animal, Total Number","[3]; 3rd Week, 20 mg/kg",6
same,"Methamphetamine Potentiation Action, Number of Dead Animal, Total Number","[3]; 3rd Week, 40 mg/kg",7
same,"Methamphetamine Potentiation Action, Number of Dead Animal, Total Number","[3]; 4th Week, 20 mg/kg",7
same,"Methamphetamine Potentiation Action, Number of Dead Animal, Total Number","[3]; 4th Week, 40 mg/kg",7
same,ED50,[1],19 mg/kg
